Data published in article PMC8875392, “Design and Characterization of Myristoylated and Non-Myristoylated Peptides Effective against Candida spp. Clinical Isolates” (International Journal of Molecular Sciences, 2022).
Like-named read-outs stand apart in the source and are kept apart here. Where a SMILES comes first, the peptide text is derived from it. The star is where a group is joined. Myristoyl = CCCCCCCCCCCCCC(=O)*

Columns and labels:
[1] = Critical micellar concentration (CMC) determination with ANS fluorescent probe; type: physicochemical; details: ANS fluorescence (70 μM ANS, λex 356 nm, emission 465 nm) in water, peptide 0.8–10.0 μM, 298 K, intersection of the two lines
Protocol: Lipopeptides usually self-assemble in organized structures that have attracted interest because of their enhanced bactericidal and fungicidal effects. The self-assembly of myristoylated peptides was evaluated by determining the critical micellar concentration (CMC) that represents the concentration of spontaneous associations of monomers by a spectrofluorometric method. 8-anilinonaphtalene-1-sulfonate (ANS) was used as a fluorescent probe since its fluorescence is very sensitive to the microenvironment, showing a blue shift and intensity increase upon changing from a polar to non-polar medium. Therefore, the fluorescence of ANS was monitored as a function of the lipopeptide concentration. […] Fluorescence intensity slowly increases up to a certain lipopeptide concentration and then breaks abruptly, indicating a sudden change in the aggregation state of lipopeptides. For each peptide, the critical micellar concentration (CMC) was evaluated by the intersection of the two lines. […] All the steady-state fluorescence measurements were carried out using a Perkin Elmer LS55 fluorescence spectrophotometer. All the experiments were conducted at 298 K in a thermostatic cell holder and in 20 mM phosphate buffer at pH 7.4 containing 0.8 mM EDTA and 150 mM NaCl unless otherwise specified. The CMC of the N-terminal myristoylated peptides was determined in water by fluorescence spectroscopy using 8-anilinonaphtalene-1-sulfonate (ANS) as the fluorescent probe. […] The ANS was excited at λex = 356 nm, and the fluorescence spectrum was measured for λem = 400–670 nm with excitation and emission bandwidths of 5 nm.

[2] = test system: Galleria mellonella larvae; test: In vivo peptide toxicity in Galleria mellonella model; details: uninfected larvae, groups of ten, peptide 640 µg/mL, single injection, 30 °C
Protocol: (§1) Multidrug-resistant C. auris was chosen as a representative species for in vivo studies. […] Groups of ten G. mellonella larvae were infected with C. auris and treated with the Pep-B and Myr-B peptides at a concentration of 640 µg/mL (about 400 µM).
(§2) Ten larvae (250–320 mg each) were selected at random for each step in the procedure. Any larvae with darkening of the cuticle were discarded. The test compounds and yeast were injected into the hemocoel in water buffer through the last left proleg (Insumed 30G Pic, Italy, syringe volume 0.5 mL, needle size 30G). The larvae were incubated in the dark for 3 days, and mortality was recorded daily.
(§3) For the peptide efficacy experiment, ten larvae were injected into the last left proleg with a pre-determined infective dose of yeast and the dose of peptides at the same time in a final volume of 10 μL and incubated at 30 °C. Each step in the procedure included six groups of 10 larvae: C. auris-infected larvae (10^7 CFU), infected and treated larvae with peptide B (640 μg/mL), infected and treated larvae with peptide Myr-B (640 μg/mL), treated larvae with peptide B (640 μg/mL), treated larvae with peptide Myr-B (640 μg/mL), and vehicle-injected control (water). The mortality was recorded daily for 3 days.

Candida auris = test: In vivo peptide efficacy in Galleria mellonella larvae infected with C. auris; details: larvae infected with Candida auris 10^7 CFU, groups of ten, peptide 640 µg/mL injected at the same time, 30 °C
Protocol: as §1, §2
An infective dose of yeast Candida auris was determined by injecting groups of ten larvae with a suspension at 10^5, 10^6, 10^7, and 10^8 colony-forming units (CFU) per injection. The larvae were incubated for 3 days at 30 °C. An infective dose was defined as the one that caused an immune response, recognizable by the darkening of the cuticle and able to kill approximately 50% of larvae after 24 h.
as §3

Protocol for rabbit erythrocytes: The hemolytic assay was performed on rabbit erythrocytes (Rockland) maintained in Alsever’s solution (Innovative Research). Briefly, after the removal of Alsever’s solution, the erythrocytes were resuspended in PBS and counted in a hemocytometer. A suspension of 5,000,000 red blood cells was incubated with four dilutions (from 5 µm to 50 µm) of the six peptides in a 96-well microplate. As a negative control, erythrocytes were incubated without the peptides, while as a positive control, erythrocyte was added with triton 10% v/v. The plate was incubated at 37 °C for 2 h and subsequently centrifuged at 1200 rpm × 3 min to separate the pellet from the supernatant. The absorbance of the supernatant was measured at 492 nm. Each point was made in triplicate. The relative OD compared to the positive control defined the percentage of hemolysis [71]. Statistical analysis was performed using two-way ANOVA analysis followed by Bonferroni’s post-test.

| critical micellar concentration (CMC) [1] [µM] | Compound | hemolysis (rabbit erythrocytes; 5 µM) [%] | Peptide toxicity, DAY 1 Dead [2] | Peptide toxicity, DAY 2 Dead [2] | Peptide toxicity, DAY 3 Dead [2] | Peptide efficacy, DAY 1 Alive (Candida auris) | Peptide efficacy, DAY 1 Dead (Candida auris) | Peptide efficacy, DAY 2 Alive (Candida auris) | Peptide efficacy, DAY 2 Dead (Candida auris) | Peptide efficacy, DAY 3 Alive (Candida auris) | Peptide efficacy, DAY 3 Dead (Candida auris) | hemolysis (rabbit erythrocytes; 50 µM) [%] |
| --- | --- | --- | --- | --- | --- | --- | --- | --- | --- | --- | --- | --- |
| 4.7 ± 0.8 | CCCCCCCCCCCCCC(=O)N[C@@H](Cc1c[nH]c2ccccc12)C(=O)N[C@@H](Cc1ccccc1)C(=O)NCC(=O)N[C@@H](CCCCN)C(=O)N[C@@H](CC(C)C)C(=O)N[C@@H](Cc1ccc(O)cc1)C(=O)N[C@@H](CCCNC(=N)N)C(=O)NCC(=O)N[C@H](C(=O)N[C@H](C(=O)N[C@@H](CCCCN)C(=O)O)[C@@H](C)O)[C@@H](C)CC [Myr-A] (Myristoyl-WFGKLYRGITK-OH; C-terminus assumed) | 0.1 | – | – | – | – | – | – | – | – | – | – |
| 5.1 ± 0.4 | CCCCCCCCCCCCCC(=O)N[C@@H](Cc1c[nH]c2ccccc12)C(=O)N[C@H](C(=O)N[C@H](C(=O)N[C@@H](CCCCN)C(=O)N[C@@H](CCCCN)C(=O)N[C@H](C(=O)N[C@@H](CCCCN)C(=O)NCC(=O)N[C@@H](CC(C)C)C(=O)N[C@@H](CC(C)C)C(=O)N[C@@H](CCCCN)C(=O)O)C(C)C)C(C)C)C(C)C [Myr-C] (Myristoyl-WVVKKVKGLLK-OH; C-terminus assumed) | – | – | – | – | – | – | – | – | – | – | 28.5 |

| Compound | critical micellar concentration (CMC) [1] [µM] | hemolysis (rabbit erythrocytes; 5 µM) [%] | Peptide toxicity, DAY 1 Dead [2] | Peptide toxicity, DAY 2 Dead [2] | Peptide toxicity, DAY 3 Dead [2] | Peptide efficacy, DAY 1 Alive (Candida auris) | Peptide efficacy, DAY 1 Dead (Candida auris) | Peptide efficacy, DAY 2 Alive (Candida auris) | Peptide efficacy, DAY 2 Dead (Candida auris) | Peptide efficacy, DAY 3 Alive (Candida auris) | Peptide efficacy, DAY 3 Dead (Candida auris) | hemolysis (rabbit erythrocytes; 50 µM) [%] |
| --- | --- | --- | --- | --- | --- | --- | --- | --- | --- | --- | --- | --- |
| CCCCCCCCCCCCCC(=O)N[C@@H](Cc1c[nH]c2ccccc12)C(=O)N[C@@H](CCCNC(=N)N)C(=O)NCC(=O)N[C@H](C(=O)N[C@H](C(=O)N[C@@H](CCCCN)C(=O)N[C@H](C(=O)N[C@H](C(=O)N[C@@H](CCCCN)C(=O)N[C@@H](CCCCN)C(=O)N[C@H](C(=O)O)C(C)C)C(C)C)C(C)C)[C@@H](C)O)[C@@H](C)CC [Myr-B] (Myristoyl-WRGITKVVKKV-OH; C-terminus assumed) | 5.1 ± 0.8 | – | 1 | 1 | 1 | 8 | 2 | 3 | 7 | 3 | 7 | – |
